Data on 15 compounds can be found in PubChem BioAssay (NCI).

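Assay format: 96-well plates, 48-hour exposure. GI50 marks 50% less growth. Definition used: TGI = concentration required for complete inhibition of growth.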

Test systems include OVCAR-4 ovarian; SNB-19 CNS; HCC-2998 colon; K-562 leukemia; LOX IMVI melanoma; A549 NSCLC; SR leukemia; TK-10 renal; SK-MEL-2 melanoma; NCI/ADR-RES ovarian.
Assay in all cases: growth of human tumour cells (NCI), 48 h

Turning to `Cc1cccc2c1C(=O)OC2(c1cccc2ccccc12)c1cccc2ccccc12`, the TGI with OVCAR-4 ovarian, in the test with SNB-19 CNS, with HCC-2998 colon, in the test on K-562 leukemia, in the test with LOX IMVI melanoma and in the test with A549 NSCLC was more than 100 µM each time. Further, the TGI in the test on SR leukemia, in the test on TK-10 renal and in the test on SK-MEL-2 melanoma was more than 100 µM throughout.
As to `CCOC(=O)CCC(NC(=O)c1ccc(Nc2nc3cc(N)cc(N)c3nc2-c2ccccc2)cc1)C(=O)OCC` (stereo unspecified), the GI50 with NCI/ADR-RES ovarian is 35 µM; in the test with OVCAR-4 ovarian, 44.5 µM; with SNB-19 CNS, more than 46.4 µM; with K-562 leukemia, 42.5 µM; in the test with LOX IMVI melanoma, 25.4 µM; with A549 NSCLC, 27.8 µM. Moreover, the GI50 was more than 57.4 µM in the test with TK-10 renal and 16.5 µM with SK-MEL-2 melanoma. In addition, the TGI with NCI/ADR-RES ovarian was more than 79.1 µM; in the test with OVCAR-4 ovarian, more than 100 µM; with SNB-19 CNS, more than 100 µM; in the test on K-562 leukemia it was more than 100 µM; in the test on LOX IMVI melanoma, more than 100 µM; in the test on A549 NSCLC it was more than 100 µM. The TGI with TK-10 renal is more than 87.3 µM; in the test on SK-MEL-2 melanoma, more than 86 µM.
Consider `Nc1ccc(C(=O)N/C(=C\c2ccc3c(c2)OCO3)c2nc3ccc4c(c3[nH]2)C(=O)c2ccccc2C4=O)cc1`, for which the TGI was more than 100 µM in the test with OVCAR-4 ovarian; more than 100 µM with SNB-19 CNS; more than 100 µM with HCC-2998 colon; more than 100 µM with K-562 leukemia; more than 100 µM in the test with LOX IMVI melanoma; 79.3 µM with A549 NSCLC. In addition, the TGI in the test with TK-10 renal was found to be 85.7 µM; with SK-MEL-2 melanoma it was 75.4 µM.
`Cc1ccc(/C=C2\CN(C(=O)CCN3CCC(=NO)CC3)C/C(=C\c3ccc(C)cc3)C2=O)cc1`: the GI50 in the test on SNB-19 CNS is 1.58 µM; in the test on HCC-2998 colon it was 1.57 µM; with LOX IMVI melanoma, 0.185 µM; in the test with A549 NSCLC, 2.43 µM; in the test with SK-MEL-2 melanoma it was 2.75 µM. Also, the TGI was determined as 4.43 µM with SNB-19 CNS; 3.18 µM with HCC-2998 colon; 0.397 µM in the test on LOX IMVI melanoma; 7.68 µM with A549 NSCLC; 7.02 µM with SK-MEL-2 melanoma.
As for `CCc1cc2c(c3[nH]ccc13)[C@@H](C)C[C@H]2C`, the TGI is 38.3 µM in the test with HCC-2998 colon; 45 µM in the test with K-562 leukemia; 25.3 µM in the test on LOX IMVI melanoma; 42.2 µM with A549 NSCLC; 36.8 µM in the test with TK-10 renal.
As for `CCOc1c(Cc2ccccc2)c(=O)n2c3ccccc3n3c(=O)n(C)c(=O)c1c23`, the TGI in the test on OVCAR-4 ovarian, in the test on SNB-19 CNS, with HCC-2998 colon, in the test with LOX IMVI melanoma, in the test on A549 NSCLC and in the test on SR leukemia was more than 100 µM throughout. Besides, the TGI in the test with TK-10 renal and with SK-MEL-2 melanoma was more than 100 µM in each case.
Regarding `CCCN(CCC)c1c([N+](=O)[O-])cc(C(N)=O)cc1[N+](=O)[O-]`, the TGI in the test with OVCAR-4 ovarian, in the test on HCC-2998 colon, with K-562 leukemia, with A549 NSCLC, in the test on TK-10 renal and in the test with SK-MEL-2 melanoma was more than 100 µM throughout.
As for `O=C1NC(=Nc2ccccc2Cl)SC1C(=O)Nc1ccc([N+](=O)[O-])cc1[N+](=O)[O-]` (stereo unspecified), the TGI with OVCAR-4 ovarian, in the test on SNB-19 CNS, with HCC-2998 colon, with K-562 leukemia, in the test with A549 NSCLC and in the test with SR leukemia was more than 100 µM throughout. Moreover, the TGI in the test with TK-10 renal and with SK-MEL-2 melanoma was more than 100 µM each time.
Regarding `COc1cccc(C2N3CCCCC3[C@@H]3c4[nH]c5ccccc5c4CCN23)c1OC` (stereo partly specified), the TGI with OVCAR-4 ovarian is 31.5 µM; with SNB-19 CNS, 24.3 µM; in the test on K-562 leukemia it was 30.1 µM; in the test on A549 NSCLC it was 29.9 µM; in the test with TK-10 renal it was 33.4 µM; with SK-MEL-2 melanoma, 29.2 µM.
Regarding `O=[P+](O)c1cc2c3ccccc3ccc2c2ccccc12`, the TGI with OVCAR-4 ovarian, with SNB-19 CNS, in the test on HCC-2998 colon, in the test on K-562 leukemia, with LOX IMVI melanoma and in the test with A549 NSCLC was more than 100 µM each time. In the test on TK-10 renal, this compound registered a TGI of more than 100 µM.
For `O=C1/C(=C/c2ccccc2)CN(C(=O)Oc2ccccc2)C/C1=C\c1ccccc1`, the TGI is more than 100 µM in the test with OVCAR-4 ovarian; 40.9 µM in the test on SNB-19 CNS; 22.1 µM in the test with K-562 leukemia; 29.9 µM in the test on LOX IMVI melanoma; more than 100 µM with A549 NSCLC; 42.5 µM in the test on TK-10 renal. This compound also had a TGI in the test on SK-MEL-2 melanoma of 65.5 µM.
As to `CC(C)C(NCc1c2ccccc2nc2ccccc12)C(=O)O` (stereo unspecified), the TGI was 42.8 µM with OVCAR-4 ovarian; more than 100 µM in the test with HCC-2998 colon; more than 100 µM in the test with K-562 leukemia; more than 100 µM in the test with LOX IMVI melanoma; more than 100 µM in the test with A549 NSCLC; more than 100 µM in the test with SR leukemia. The TGI with TK-10 renal and with SK-MEL-2 melanoma was more than 100 µM each time.
In the case of `COC(=O)C([O][Ge]([CH3])([CH3])[CH3])c1ccccc1` (stereo unspecified), the GI50 in the test with OVCAR-4 ovarian, in the test on SNB-19 CNS, in the test with HCC-2998 colon, with K-562 leukemia, in the test on LOX IMVI melanoma and in the test on A549 NSCLC was more than 100 µM in each case. In addition, in the test on TK-10 renal, the GI50 is more than 100 µM. Further, the TGI in the test with OVCAR-4 ovarian, in the test with SNB-19 CNS, with HCC-2998 colon, with K-562 leukemia, in the test with LOX IMVI melanoma and in the test with A549 NSCLC was more than 100 µM each time. The same compound yielded a TGI with TK-10 renal of more than 100 µM.
`O=C1/C(=C/c2ccc(Cl)cc2)COc2ccc(Br)cc21`: the TGI in the test with HCC-2998 colon, with K-562 leukemia, with LOX IMVI melanoma, with A549 NSCLC, in the test on TK-10 renal and in the test with SK-MEL-2 melanoma was more than 100 µM each time.
As to `CC(C(=O)C(C)O[Si](c1ccccc1)(c1ccccc1)C(C)(C)C)=P(c1ccccc1)(c1ccccc1)c1ccccc1` (stereo unspecified), the TGI with OVCAR-4 ovarian amounted to 13.9 µM; with SNB-19 CNS, 14.5 µM; in the test on HCC-2998 colon it was 12.3 µM; in the test on K-562 leukemia, 12.3 µM; in the test with LOX IMVI melanoma, 11.1 µM; with A549 NSCLC, 13.3 µM. The TGI is 16.9 µM with TK-10 renal and 7.64 µM with SK-MEL-2 melanoma.
